According to PubChem BioAssay AID743333 (Broad Institute, 2014):
Activity calls are given as the source filed them.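 Rule for the calls: active = signal falls with dose and an IC50 can be fitted at or below twice the top valid tested dose; inconclusive = flat fit showing 30 to 70% loss, or poor fit; inactive = activity in the rising direction, plus the rest.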

Legend:
[1] = test system: A549 viability, CellTiter-Glo ATP luminescence, 72 h; assay: A549 cell cytotoxicity, dose response, cytotoxicity control, plate reader, dry powder, set 8 (AID 743333)
[2] = as above; settings: A549 viability, CellTiter-Glo ATP luminescence, 72 h; at 15 µM (top of the series)

| SMILES | IC50 [1] | activity change, negative = cytotoxicity [2] |
| --- | --- | --- |
| CCN(CC)c1ccc(S(=O)(=O)N(C)C)cc1C(=O)Nc1ncc(C)s1 | > 30 µM (inactive) | – |
| CN(C)S(=O)(=O)c1ccc(N2CCCC2)c(C(=O)Nc2nc3ccccc3s2)c1 | – | -13.7% (inactive) |
| COc1ccc2nc(NC(=O)c3cc(S(=O)(=O)N(C)C)ccc3N3CCCC3)sc2c1 | – | -4.45% (inactive) |
| Cc1cnc(NC(=O)c2cc(S(=O)(=O)N(C)C)ccc2N(C)C)s1 | – | -6.64% (inactive) |
| Cc1cnc(NC(=O)c2cc(S(=O)(=O)N(C)C)ccc2C2CCCC2)s1 | – | 0.274% (inactive) |
| Cc1csc(NC(=O)c2cc(S(=O)(=O)N(C)C)ccc2N2CCCC2)n1 | – | -6.7% (inactive) |
| Cc1cnc(NC(=O)c2cc(S(=O)(=O)N3CCCC3)ccc2N2CCCC2)s1 | – | 0.402% (inactive) |
| COc1ccc2sc(NC(=O)c3cc(S(=O)(=O)N(C)C)ccc3N3CCCC3)nc2c1 | – | 8.3% (inactive) |
| Cc1ccc(NC(=O)c2cc(S(=O)(=O)N(C)C)ccc2N2CCCC2)cc1 | – | -13.5% (inactive) |
| CN(C)CCCN(Cc1cc2ccccc2[nH]c1=O)C(=O)NCc1ccccc1 | – | -4.79% (inactive) |
| Cc1cnc(NC(=O)c2cc(S(=O)(=O)N(C)C)ccc2N2CCC2)s1 | – | -8.88% (inactive) |
| CN(C)S(=O)(=O)c1ccc(N2CCCC2)c(C(=O)Nc2nccs2)c1 | – | 1.36% (inactive) |
| Cc1cnc(NC(=O)c2cc(S(=O)(=O)N3CCCCC3)ccc2N2CCCC2)s1 | – | 9.07% (inactive) |
| Cc1cnc(NC(=O)c2cc(S(=O)(=O)N3CCOCC3)ccc2N2CCCC2)s1 | – | -9.98% (inactive) |
| Cc1cnc(NC(=O)c2cc(S(=O)(=O)N(C)C)ccc2N2CCCC2)s1 | – | -12% (inactive) |
| CN(C)CCCN(Cc1cc2ccccc2[nH]c1=O)C(=O)Nc1ccccc1 | – | 2.4% (inactive) |
| CN(C)S(=O)(=O)c1ccc(N2CCCC2)c(C(=O)Nc2ccccc2)c1 | – | -5.56% (inactive) |
| CN(C)S(=O)(=O)c1ccc(N2CCCC2)c(C(=O)Nc2cccc(F)c2)c1 | – | -8.14% (inactive) |
| COc1cccc2sc(NC(=O)c3cc(S(=O)(=O)N(C)C)ccc3N3CCCC3)nc12 | – | -2.59% (inactive) |
